Reference: US9751889B2 (CRYSTAL PHARMATECH INC., priority 2013, dated 2017)
Converted amounts (≈) assume the structure as drawn. Where two headings read alike, the source gives them in different places. Each block holds one compound with its values, some of them ahead of it.

Legend:
physchem = conditions: for Solubility / solubility at 1 h / solubility at 4 h / solubility at 24 h: RT; for Solubility: listed as WO2013184572A1 Form A; for solubility at 1 h / solubility at 4 h / solubility at 24 h: thermodynamic from solid
Method: 2. Add 3 mL of bio-relevant medium into each vial.
3. Cap the vials and keep all the suspension samples stirring at RT (room temperature) using a rolling incubator at a rate of 25 r/min.
4. Sample at 1 h, 4 h and 24 h respectively. About 0.6 mL aliquot of the suspension is transferred per time from solubility vial into a centrifuge filtration tube (pore size of 0.45 μm).
5. Centrifuge filtration tubes at a rate of 8500 rpm for 3 minutes at RT, collect 0.2 mL of supernatant for HPLC quantification determination and collect the rest of solution for pH measurement, and separate the solid for XRPD characterization.

[1] = cited from earlier work
[2] = DVS, 25° C.
Method: Dynamic Vapor Sorption (DVS)
Dynamic Vapor Sorption (DVS) was measured via a SMS (Surface Measurement Systems) DVS Intrinsic. The relative humidity at 25° C. were calibrated against deliquescence point of LiCl, Mg(NO3)2 and KCl. Typical Parameters for DVS test are listed below.

[3] = dish open, 180 days; for Chemical purity: HPLC; for Final form: XRPD
Method: The chemical and physical stabilities of the samples were evaluated by high performance liquid chromatography (HPLC) and XRPD.

Solubility (physchem; FeSSIF, time point 1 h): 100 µg/mL (≈ 227 µM)
Solubility (physchem; FeSSIF, time point 4 h): 110 µg/mL (≈ 250 µM)
Solubility (physchem; FeSSIF, time point 24 h): 130 µg/mL (≈ 295 µM)
Solubility (physchem; SGF, time point 1 h): 360 µg/mL (≈ 817 µM)
Solubility (physchem; SGF, time point 4 h): 390 µg/mL (≈ 885 µM)
Solubility (physchem; SGF, time point 24 h): 380 µg/mL (≈ 863 µM)
Structure (SMILES): C=CC(=O)N1CCC[C@@H](n2nc(-c3ccc(Oc4ccccc4)cc3)c3c(N)ncnc32)C1 [Form A, 1-[(3R)-3-[4-amino-3-(4-phenoxyphenyl)-1H-pyrazolo [3,4-d]pyrimidin-1-yl]piperidin-1-yl]prop-2-en-1-one, reference compound]
Solubility ([1]; pH=8): 13 µg/mL (≈ 29.5 µM)

Structure (SMILES): C=CC(=O)N1CCC[C@@H](n2nc(-c3ccc(Oc4ccccc4)cc3)c3c(N)ncnc32)C1 [Form B, 1-[(3R)-3-[4-amino-3-(4-phenoxyphenyl)-1H-pyrazolo [3,4-d]pyrimidin-1-yl]piperidin-1-yl]prop-2-en-1-one]
Solubility ([1]; pH=7.42): 9.6 µg/mL (≈ 21.8 µM)

Solubility in comparison to crystalline Form A (WO2013184572A1) (physchem; FeSSIF and SGF): higher solubility
solubility at 1 h (physchem; fed state simulated intestinal fluid (FeSSIF), fessif, time point 1 h): 150 µg/mL (≈ 341 µM)
solubility at 4 h (physchem; fed state simulated intestinal fluid (FeSSIF), fessif, time point 4 h): 160 µg/mL (≈ 363 µM)
solubility at 24 h (physchem; fed state simulated intestinal fluid (FeSSIF), fessif, time point 24 h): 160 µg/mL (≈ 363 µM)
solubility at 1 h (physchem; simulated gastric fluid (SGF), simulated gastric fluid, SGF, time point 1 h): 500 µg/mL (≈ 1140 µM)
solubility at 4 h (physchem; simulated gastric fluid (SGF), simulated gastric fluid, SGF, time point 4 h): 500 µg/mL (≈ 1140 µM)
solubility at 24 h (physchem; simulated gastric fluid (SGF), simulated gastric fluid, SGF, time point 24 h): 480 µg/mL (≈ 1090 µM)
Water uptake under 80% RH ([2]; 80% RH): 0.19%
Water uptake under 80% RH ([2]; 80% RH, listed as Ibrutinib Form I): 0.19%
Water uptake under 95% RH ([2]; 95% RH): 0.48%
Hygroscopicity (European pharmacopoeia criteria) ([2]; 80% RH): non-hygroscopic
Chemical purity ([3]; 25° C./60% RH): 98.98%
Final form ([3]; 25° C./60% RH): Form I
Chemical purity ([3]; 40° C./75% RH): 98.98%
Final form ([3]; 40° C./75% RH): Form I
Structure (SMILES): C=CC(=O)N1CCC[C@@H](n2nc(-c3ccc(Oc4ccccc4)cc3)c3c(N)ncnc32)C1 [Form I, 1-[(3R)-3-[4-amino-3-(4-phenoxyphenyl)-1H-pyrazolo [3,4-d]pyrimidin-1-yl]piperidin-1-yl]prop-2-en-1-one]
